These results are taken from ChEMBL document CHEMBL1201862, “PubChem BioAssay data set” (2004).

Molecules are shown by their SMILES. Active and inactive are the calls of the source.

In assay [1] the target is Mitogen-activated protein kinase 10 (Homo sapiens, UniProt P53779). Kind of assay: Dose response biochemical screening assay for inhibitors of c-Jun N-Terminal Kinase 3 (JNK3). [Related pubchem assays: 746 ].
Assay [2] deals with Intestinal-type alkaline phosphatase (Mus musculus, UniProt P24822). Put plainly: PubChem AID 488785. The format is functional.
Assay [3] concerns the target RNA-editing ligase 1, mitochondrial (Trypanosoma brucei brucei, UniProt P86926). Kind of assay: TbREL1 ligase inhibitors, dose response, biochemical, fluorescence, Trypanosoma brucei (AID 1117295). Type of assay: functional.
Assay [4] has as its target Intestinal-type alkaline phosphatase (Homo sapiens, UniProt P09923). Put plainly: inhibition of human intestinal alkaline phosphatase – biochemical, dose response (AID 488876). The format is functional.
In assay [5] the target is T1, Alkaline phosphatase, tissue-nonspecific isozyme (Homo sapiens, UniProt P05186).
T1 sequence (P05186 whole entry): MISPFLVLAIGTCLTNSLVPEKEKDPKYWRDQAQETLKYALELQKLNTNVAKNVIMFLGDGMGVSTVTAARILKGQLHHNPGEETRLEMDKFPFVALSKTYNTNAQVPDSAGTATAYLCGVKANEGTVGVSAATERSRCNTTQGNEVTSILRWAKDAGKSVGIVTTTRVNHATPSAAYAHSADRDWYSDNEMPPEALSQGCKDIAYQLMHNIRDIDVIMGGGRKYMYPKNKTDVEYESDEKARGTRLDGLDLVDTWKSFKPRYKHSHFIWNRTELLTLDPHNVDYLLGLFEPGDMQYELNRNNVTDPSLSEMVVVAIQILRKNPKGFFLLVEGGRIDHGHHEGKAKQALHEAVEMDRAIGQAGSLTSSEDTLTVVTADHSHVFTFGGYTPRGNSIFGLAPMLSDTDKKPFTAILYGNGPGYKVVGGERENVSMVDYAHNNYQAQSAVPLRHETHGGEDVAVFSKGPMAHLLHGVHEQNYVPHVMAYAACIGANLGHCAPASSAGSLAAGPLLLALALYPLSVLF
Kind of assay: TNAP enzyme inhibition by screening hits, dose response, selectivity assay for mouse IAP inhibitor project, biochemical, human TNAP, uHTS hits (AID 488906). Type of assay: functional.

Assay [6] can be described thus: CTGF mRNA reduction under YAP1 overexpression, dose response, mechanism study for YAP1 pathway inhibitor project, DLD1 cells, RT-qPCR, cherry-pick (AID 1053127). Type of assay: functional, cell-based. As to conditions: DLD-1.
Assay [7] can be described thus: YAP1 pathway inhibition via CTGF transcript levels, dose response, cell-based, DLD1 colon cancer, RT-qPCR, cherry-pick (AID 1053122). Type of assay: functional. As to conditions: Cancer cell lines.
In assay [8] the target is Sphingosine 1-phosphate receptor 2 (Homo sapiens, UniProt O95136). Put plainly: Dose Response Cell Based Assay for Agonists of the S1P2 Receptor. [Related pubchem assays: 729, 736, 843 ]. Type of assay: functional.
In assay [9] the target is T2, Low molecular weight phosphotyrosine protein phosphatase (Homo sapiens, UniProt P24666).
T2 sequence (P24666 whole entry): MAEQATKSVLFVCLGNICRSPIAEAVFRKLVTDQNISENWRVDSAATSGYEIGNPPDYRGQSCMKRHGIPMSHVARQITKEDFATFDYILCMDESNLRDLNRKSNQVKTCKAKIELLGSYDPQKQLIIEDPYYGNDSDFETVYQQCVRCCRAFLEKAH
Kind of assay: LMPTP phosphatase inhibitors, colorimetric pNPP readout, dose response, orthogonal assay, biochemical, absorbance, pNPP substrate, LMPTP-A isoform, set 2 (AID 743308). Type of assay: functional.

The target in assay [10] is T2, Low molecular weight phosphotyrosine protein phosphatase. Kind of assay: LMPTP phosphatase inhibitors, dose response, biochemical, OMFP substrate, fluorescence intensity, set 2 (AID 743307). The format is functional.
Assay [11] is described as follows: Dose-response inhibition of insulin secretion in a rat insulinoma line at 5 mM glucose (AID 1117331). Type of assay: functional, cell-based. As to conditions: INS-1E.
Assay [12] in a line: half-maximal inhibitory concentration for glucagon-like peptide-1 release, STC-1 cell line, dose-response (AID 1117345). The format is functional, cell-based.
The nature of assay [13]: Glucagon-like peptide 1 release potency, NCI-H716 cell line, dose-response, half-maximal inhibitory concentration (AID 1117344). Type of assay: functional, cell-based.
Assay [14] addresses Melanin-concentrating hormone receptor 1 (Homo sapiens, UniProt Q99705). Kind of assay: Fluorescence-based counterscreen for antagonists of the G-protein coupled receptor 7 (GPR7): cell-based high throughput dose response assay to identify antagonists of the melanin-concentrating hormone receptor 1 (MCHR1). Type of assay: functional.
Assay [15] deals with T3, Neuropeptides B/W receptor type 1 (Homo sapiens, UniProt P48145).
T3 sequence (P48145 whole entry): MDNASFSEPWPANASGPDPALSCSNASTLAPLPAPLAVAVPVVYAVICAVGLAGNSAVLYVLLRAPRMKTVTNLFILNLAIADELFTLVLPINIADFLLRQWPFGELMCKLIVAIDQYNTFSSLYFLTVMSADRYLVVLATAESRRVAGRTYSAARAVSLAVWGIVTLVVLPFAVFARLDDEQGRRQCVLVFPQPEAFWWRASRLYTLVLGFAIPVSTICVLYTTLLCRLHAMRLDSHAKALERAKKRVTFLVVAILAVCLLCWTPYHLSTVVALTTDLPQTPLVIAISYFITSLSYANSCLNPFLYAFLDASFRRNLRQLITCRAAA
Put plainly: Fluorescence-based dose response cell-based high throughput screening assay to identify antagonists of the G-protein coupled receptor 7 (GPR7). [Related pubchem assays: 1952 (Screening assay (GPR7 antagonists).), 1880 (Summary AID.)]. The format is functional.

Sequence of Melanin-concentrating hormone receptor 1 (Q99705 whole entry): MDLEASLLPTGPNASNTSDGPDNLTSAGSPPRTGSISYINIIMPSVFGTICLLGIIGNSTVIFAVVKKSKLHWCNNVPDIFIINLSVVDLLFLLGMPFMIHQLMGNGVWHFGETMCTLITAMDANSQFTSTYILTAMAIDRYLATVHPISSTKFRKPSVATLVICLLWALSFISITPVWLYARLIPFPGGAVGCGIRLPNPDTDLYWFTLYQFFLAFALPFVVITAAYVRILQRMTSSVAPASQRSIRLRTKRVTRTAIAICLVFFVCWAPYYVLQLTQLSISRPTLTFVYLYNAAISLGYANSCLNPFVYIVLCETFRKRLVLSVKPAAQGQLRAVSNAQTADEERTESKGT
Sequence of RNA-editing ligase 1, mitochondrial (P86926 whole entry): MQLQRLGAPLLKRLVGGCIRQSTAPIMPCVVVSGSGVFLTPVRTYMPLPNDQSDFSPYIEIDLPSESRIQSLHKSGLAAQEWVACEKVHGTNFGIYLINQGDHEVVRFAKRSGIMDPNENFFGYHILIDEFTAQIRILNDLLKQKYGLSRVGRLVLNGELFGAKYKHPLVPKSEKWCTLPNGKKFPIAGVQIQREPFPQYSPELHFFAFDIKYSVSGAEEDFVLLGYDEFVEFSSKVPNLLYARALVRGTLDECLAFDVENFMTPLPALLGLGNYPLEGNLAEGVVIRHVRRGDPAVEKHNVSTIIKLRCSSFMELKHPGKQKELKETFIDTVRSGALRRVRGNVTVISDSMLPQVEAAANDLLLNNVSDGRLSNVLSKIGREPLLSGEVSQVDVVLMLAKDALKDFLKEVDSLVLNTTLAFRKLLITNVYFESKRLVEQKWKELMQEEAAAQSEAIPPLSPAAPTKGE
Sequence of Mitogen-activated protein kinase 10 (P53779 whole entry): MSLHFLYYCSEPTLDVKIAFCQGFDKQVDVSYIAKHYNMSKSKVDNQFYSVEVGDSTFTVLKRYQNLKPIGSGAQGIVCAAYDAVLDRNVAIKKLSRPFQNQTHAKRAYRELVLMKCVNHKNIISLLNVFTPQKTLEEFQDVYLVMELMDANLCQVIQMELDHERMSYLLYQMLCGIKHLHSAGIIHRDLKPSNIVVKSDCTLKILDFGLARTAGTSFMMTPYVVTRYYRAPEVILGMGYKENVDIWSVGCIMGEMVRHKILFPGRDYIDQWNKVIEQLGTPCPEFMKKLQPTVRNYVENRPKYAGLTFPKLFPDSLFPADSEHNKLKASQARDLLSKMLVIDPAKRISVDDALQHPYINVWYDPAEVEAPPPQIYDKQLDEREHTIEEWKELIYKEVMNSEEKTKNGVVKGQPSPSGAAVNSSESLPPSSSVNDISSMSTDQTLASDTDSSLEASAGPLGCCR
Sequence of Intestinal-type alkaline phosphatase (Homo sapiens, UniProt P09923) (P09923 whole entry): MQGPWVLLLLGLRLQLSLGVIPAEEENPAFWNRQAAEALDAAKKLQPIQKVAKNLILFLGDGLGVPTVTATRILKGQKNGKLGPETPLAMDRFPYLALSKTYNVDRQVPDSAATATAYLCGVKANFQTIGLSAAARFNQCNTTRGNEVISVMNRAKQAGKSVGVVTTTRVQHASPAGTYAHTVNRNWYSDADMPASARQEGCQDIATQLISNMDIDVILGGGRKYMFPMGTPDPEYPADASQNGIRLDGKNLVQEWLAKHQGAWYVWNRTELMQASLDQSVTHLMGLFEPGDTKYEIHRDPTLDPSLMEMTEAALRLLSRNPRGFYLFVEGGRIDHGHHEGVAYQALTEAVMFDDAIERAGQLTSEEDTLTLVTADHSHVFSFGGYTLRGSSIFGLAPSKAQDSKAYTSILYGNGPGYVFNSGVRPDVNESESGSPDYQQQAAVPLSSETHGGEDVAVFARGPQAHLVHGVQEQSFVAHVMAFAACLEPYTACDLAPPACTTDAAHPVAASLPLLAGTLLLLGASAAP
Sequence of Intestinal-type alkaline phosphatase (Mus musculus, UniProt P24822) (P24822 whole entry): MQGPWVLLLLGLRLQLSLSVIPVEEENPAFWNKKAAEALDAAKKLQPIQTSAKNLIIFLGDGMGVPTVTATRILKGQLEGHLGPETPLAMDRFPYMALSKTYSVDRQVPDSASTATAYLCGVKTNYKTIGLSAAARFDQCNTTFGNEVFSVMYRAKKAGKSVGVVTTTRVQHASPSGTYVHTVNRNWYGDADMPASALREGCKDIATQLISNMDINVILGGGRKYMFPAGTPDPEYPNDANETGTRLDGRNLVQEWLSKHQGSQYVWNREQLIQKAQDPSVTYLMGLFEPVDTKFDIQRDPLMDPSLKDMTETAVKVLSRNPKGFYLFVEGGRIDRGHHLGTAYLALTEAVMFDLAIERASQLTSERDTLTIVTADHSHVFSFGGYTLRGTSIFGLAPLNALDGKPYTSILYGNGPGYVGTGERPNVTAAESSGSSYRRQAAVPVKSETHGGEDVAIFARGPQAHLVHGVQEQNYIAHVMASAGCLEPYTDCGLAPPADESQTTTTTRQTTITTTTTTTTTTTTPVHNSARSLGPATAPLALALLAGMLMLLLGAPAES
Sequence of Sphingosine 1-phosphate receptor 2 (O95136 whole entry): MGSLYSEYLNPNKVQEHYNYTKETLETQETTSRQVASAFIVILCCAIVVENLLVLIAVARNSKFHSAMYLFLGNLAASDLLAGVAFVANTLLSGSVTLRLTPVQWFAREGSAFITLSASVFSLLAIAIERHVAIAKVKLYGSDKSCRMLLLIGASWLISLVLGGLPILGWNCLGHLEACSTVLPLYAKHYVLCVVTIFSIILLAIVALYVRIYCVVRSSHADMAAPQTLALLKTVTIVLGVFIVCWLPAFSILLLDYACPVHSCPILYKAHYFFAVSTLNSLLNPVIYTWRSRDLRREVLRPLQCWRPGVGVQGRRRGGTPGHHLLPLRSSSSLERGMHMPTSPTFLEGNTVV

Take `COC(=O)c1ccc(Cn2c(O)c(N=O)c3ccccc32)o1`: the IC50 in assay [1] is on record as > 31 µM (not active).

As to `N#Cc1c(SCC(=O)Nc2nccs2)sc2c(O)cc(O)nc12`, the IC50 in assay [2] is 0.485 µM (active); in assay [3], 35.5 µM (inactive); in [4] it was > 100 µM (inactive); in assay [5] it was > 100 µM (inactive).

In the case of `O=C(Cc1ccncc1)N1CCCCN2[C@H](CO)[C@H](c3ccc(C#Cc4ccccc4F)cc3)[C@@H]2C1`, the AC50 in assay [6] is 7.5 µM (active); in [7], 5.41 µM (active).

As to `C(=C\c1ccccc1)/CSc1nnc(-c2ccccc2)n1Cc1ccco1`, the EC50 in [8] is > 50 µM (not active).

For the compound `Fc1ccc2nc(-c3ccccc3)cc(NCCCN3CCCCC3)c2c1`, the IC50 in assay [9] was 21 µM (inactive); in assay [10] it was 22 µM (inactive).

For `CC(COc1ccccc1)NN` (stereo not given) [PHENOXYPROPAZINE], the IC50 in [11] is > 33.3 µM (inactive); in assay [12], 27.2 µM (inactive); in assay [13], > 40 µM (inactive).

Consider `O=C(O)c1ccc(NCc2cccc(Br)c2)cc1`, for which the 50% inhibitory concentration (IC50) in [14] and in assay [15] was > 43.8 µM (not active) in each case.
